Measurements: patent US8906111B2, “Artificial bone material having controlled calcium ion elution” (The University of Tokyo, priority 2008, dated 2014)

Tests used:
[1] = test system: Macrophage-like cells RAW267.4; test: Release of [3H] arachidonic acid (lipid mediator) from macrophage-like cells treated with CaCl2-gluconic acid solutions; type: cell-based; conditions: FIG. 3
Method: An increased concentration of extracellular calcium ions activates an inflammatory response route through increase of intracellular calcium ion and/or a sensing mechanism of extracellular calcium ion. The present inventors studied whether induction of inflammatory responses due to increase of calcium ions can be prevented or not by chelating calcium ions. Solutions of 5 mM CaCl2—0.384% gluconic acid and 7.5 mM CaCl2—0.384% gluconic acid (referred to as Ca^2+Gluc.Acid), the pH of which were adjusted to approximately 7 with NaOH, were prepared and allowed to stand for one hour at room temperature. Macrophage-like cells RAW267.4, which were labeled with 1 μCi [^3H] arachidonic acid one day before, were treated with respective CaCl2-gluconic acid solutions for one hour, and measured for the amount of released lipid mediator with a liquid scintillation counter.
FIG. 3 is a graph, in place of a drawing, showing that gluconic acid prevents inflammatory responses induced by calcium ions. Each vertical axis of FIGS. 3A and 3B indicates release of arachidonic acid (rates of released [^3H] arachidonic acid). The higher value refers to more arachidonic acid being released, indicating an activation of arachidonate cascade, which is one of the major inflammatory responses. In FIG. 3, the “mock” refers to a sample without CaCl2 or gluconic acid addition, which was prepared as a control. […]

[2] = Chelating effect on calcium ion measured with a calcium ion electrode; type: physicochemical; conditions: 0.25% to 25% gluconic acid containing 2.5 mM CaCl2, pH 7.0; FIG. 2
Method: To confirm chelating effects of gluconic acid on calcium ion, the concentration of calcium ion in the presence of gluconic acid was measured with a calcium ion electrode. The vertical axis of FIG. 2 indicates the concentration of calcium ion (Ca^2+) (mg/L). […] The results might be attributed to the gluconic acid chelating calcium ions.

| SMILES | release of arachidonic acid (amount of released lipid mediator) ([1]; CaCl2 (5 mM or 7.5 mM) without gluconic acid, compared with the mock) | concentration of calcium ion (Ca2+) [2] | release of arachidonic acid (rates of released [3H] arachidonic acid) ([1]; 5 mM or 7.5 mM CaCl2 with 0.384% gluconic acid, pH approx. 7, cells treated one hour) |
| --- | --- | --- | --- |
| [Ca+2].[Cl-].[Cl-] [CaCl2] | released increased amount of lipid mediator |  |  |
| O=C(O)[C@H](O)[C@@H](O)[C@H](O)[C@H](O)CO [gluconic acid] |  | the higher the concentration of gluconic acid became, the concentration of calcium ion lowered | arachidonate cascade activation was prevented |
